This note sets out measurements from patent US11135223B2, “Compositions and methods for inhibiting Dkk-1” (YALE UNIVERSITY, priority 2016, dated 2021).

This experiment concerns CD4 T cells. The experiment in a line: CD4 T cell activation and differentiation in vitro with Dkk-1 or Wnt3a. The experiment is classed as cell-based, mice. Particulars: naïve CD4 T cells, Wnt3a 20% v/v, 96 hours. An excerpt: FIG. 5, comprising FIG. 5A through FIG. 5E, depicts results of experiments showing Dkk-1 induces TH2 cell polarization. FIG. 5A depicts lungs harvested for immunohistochemistry of CD3 (dark brown), CD41 (blue) and isotype control antibodies of lungs from Dkk-1^d/d mice and their wildtype littermate controls challenged with HDM extract allergen. Orange arrowheads in the images indicate co-localized CD3 T cells with CD41^+ platelets. FIG. 5B depicts ELISA analysis of Dkk-1 from plasma samples from Dkk-1^d/d mice (n=5) collected 24 hours after challenge with 50 μg HDM. FIG. 5C depicts ELISA analysis of splenic CD4 T cells from 6-8 week-old C57BL/6 mice were activated with anti-CD3 and anti-CD28 antibodies (Act) with or without Dkk-1 (30 ng/ml unless indicated) for 4 days. FIG. 5D depicts flow cytometry analysis of splenic CD4 T cells from 6-8 week-old C57BL/6 mice were activated with anti-CD3 and anti-CD28 antibodies (Act) with or without Dkk-1 (30 ng/ml unless indicated) for 4 days. FIG. 5E depicts ELISA analysis of naïve CD4 T cells stimulated anti-CD3 and anti-CD28 antibodies for 96 hr with or without Dkk-1.
FIG. 6, comprising FIG. 6A through FIG. 6E, depicts results of experiments showing Dkk-1 induces TH2 cytokines in various T cell differentiation conditions. FIG. 6A depicts flow cytometry and ELISA analysis of naïve CD4 T cells were stimulated under TH1 polarization conditions for 96 hours with or without Dkk-1. FIG. 6B depicts flow cytometry and ELISA analysis of naïve CD4 T cells were stimulated under TH2 polarization conditions for 96 hours with or without Dkk-1. FIG. 6C depicts flow cytometry analysis of Foxp3, IL-17A, and IL-10 expression in splenic naïve CD4 T cells isolated and differentiated into iTreg for 5 days with 100 U/ml IL-2 and 1.5 ng/ml TGF-β with or without 30 ng/ml and 3 ng/ml of Dkk-1 treated during the culture. FIG. 6D depicts Gata-3 expression levels of splenic naïve CD4 T cells from 8 week-old C57BL/6 mice treated with Dkk-1 with varying doses of Dkk-1 (50, 30, 7.5 ng/ml) or Wnt3a (20% v/v) for 96 hours in the presence of anti-CD3 and anti-CD28 antibody stimulation. FIG. 6E depicts qPCR results of Tcf7 and Lef1 mRNA harvested from splenic naïve CD4 T cells from 8 week-old C57BL/6 mice stimulated with or without Dkk-1 (30 ng/ml) for 96 hours. All results were statistically non-significant. All experiments are a representative of two to three independent experiments. Student's t-test or one way-ANOVA analysis with Bonferonni's post-hoc test were performed. Small horizontal lines and error bars indicate the mean (±s.e.m.). ***, p<0.0001, **, p<0.005, *, p<0.05.
FIG. 8, comprising FIG. 8A through FIG. 8G, depicts results of experiments showing Dkk-1 induces IL-10 in CD4 T cells via SGK-1 and p38 MAPK. FIG. 8A depicts ELISA analysis of naïve CD4 T cell differentiated into TH2 cells with or without Dkk-1 (30 ng/ml), SGK-1 inhibitor (2 μM) or p38 inhibitor (10 μM) for 96 hours. FIG. 8B depicts flow cytometry analysis of human naïve CD4 T cells (CD4^+CD25^−CD45RA^+) transduced with SGK-1 shRNA and selected with puromycin (0.5 μg/ml) for 48 hours. The selected cells were stimulated with anti-CD3 mAb (OKT3) and anti-CD28 mAb with or without Dkk-1 for 96 hr. For the last 5 hr of culture, stimulation cocktail (PMA/Ionomycin/Brefeldin A/Monensin) was added. FIG. 8C depicts intracellular staining with antibodies recognizing phospho-S6 kinase of splenic CD4^+CD25^− cells from 6 week-old C57BL/6 mice were isolated and activated with anti-CD3 and anti-CD28 mAb (2 μg/ml) with or without Dkk-1 (25 ng/ml) for indicated time points. FIG. 8D depicts intracellular staining with antibodies recognizing phospho-4E-BP1 of splenic CD4^+CD25^− cells from 6 week-old C57BL/6 mice were isolated and activated with anti-CD3 and anti-CD28 mAb (2 μg/ml) with or without Dkk-1 (25 ng/ml) for indicated time points. […]

For the substance Wnt3a, the Gata-3 expression result is “induced”.
